According to ChEMBL document CHEMBL3885861, “Open TG-GATES”:

Species on record: Rattus norvegicus
Assay: Open TG-GATES - Regimen: Single
Assay type: toxicity, organism-based, Sprague-Dawley
Parameters: regimen Single, gender Male, age 6 weeks
Conditions: in vivo, po, route gavage; for KIDNEY_L / KIDNEY_R / KIDNEY_TOTAL: tissue Kidney; for LIVER: tissue Liver; for ALP / ALT / AST / BUN / CRE / DBIL / GLC / IP / K / PL / RALB / TBIL / TC / TG / TP / gamma-GTP: tissue Plasma
[1] = 100 mg/kg, 3 h, tissue Blood, dose level Middle
[2] = 100 mg/kg, 3 h, dose level Middle
[3] = 100 mg/kg, 6 h, tissue Blood, dose level Middle
[4] = 100 mg/kg, 6 h, dose level Middle
[5] = 100 mg/kg, 9 h, tissue Blood, dose level Middle
[6] = 100 mg/kg, 9 h, dose level Middle
[7] = 100 mg/kg, 24 h, tissue Blood, dose level Middle
[8] = 100 mg/kg, 24 h, dose level Middle
[9] = 1000 mg/kg, 3 h, tissue Blood, dose level High
[10] = 1000 mg/kg, 3 h, dose level High
[11] = 1000 mg/kg, 6 h, tissue Blood, dose level High
[12] = 1000 mg/kg, 6 h, dose level High
[13] = 1000 mg/kg, 9 h, tissue Blood, dose level High
[14] = 1000 mg/kg, 9 h, dose level High
[15] = 1000 mg/kg, 24 h, tissue Blood, dose level High
[16] = 1000 mg/kg, 24 h, dose level High

SMILES: CC(C)OC(=O)C(C)(C)Oc1ccc(C(=O)c2ccc(Cl)cc2)cc1 [FENOFIBRATE]
- Bas [1]: 0.2%
- Eos [1]: 1%
- Fbg [1]: 289.2 mg/dL
- Ht [1]: 41%
- MCHC [1]: 32.3%
- Mono [1]: 3%
- RBC [1]: 610 x10_4/ul
- Ret [1]: 9.8%
- KIDNEY_L [2]: 0.8 g
- KIDNEY_R [2]: 0.8 g
- KIDNEY_TOTAL [2]: 1.6 g
- LIVER [2]: 8.2 g
- ALP [2]: 1478.6 IU/L
- ALT [2]: 46.6 IU/L
- AST [2]: 79 IU/L
- BUN [2]: 9.8 mg/dL
- CRE [2]: 0.2 mg/dL
- DBIL [2]: 0.012 mg/dL
- GLC [2]: 181.2 mg/dL
- IP [2]: 10.1 mg/dL
- K [2]: 4.3 meq/L
- PL [2]: 145.8 mg/dL
- RALB [2]: 2.6 g/dL
- TBIL [2]: 0.052 mg/dL
- TC [2]: 79.6 mg/dL
- TG [2]: 46.4 mg/dL
- TP [2]: 5.4 g/dL
- gamma-GTP [2]: 1.4 IU/L
- Bas [3]: 0.2%
- Eos [3]: 0.4%
- Fbg [3]: 261.4 mg/dL
- Ht [3]: 39.8%
- MCHC [3]: 32.3%
- Mono [3]: 2.8%
- RBC [3]: 591.2 x10_4/ul
- Ret [3]: 10.3%
- KIDNEY_L [4]: 0.8 g
- KIDNEY_R [4]: 0.8 g
- KIDNEY_TOTAL [4]: 1.6 g
- LIVER [4]: 7.5 g
- ALT [4]: 51.2 IU/L
- AST [4]: 85.8 IU/L
- BUN [4]: 8.4 mg/dL
- CRE [4]: 0.2 mg/dL
- DBIL [4]: 0.01 mg/dL
- GLC [4]: 173 mg/dL
- IP [4]: 9.8 mg/dL
- K [4]: 4.2 meq/L
- PL [4]: 130.8 mg/dL
- RALB [4]: 2.5 g/dL
- TBIL [4]: 0.054 mg/dL
- TC [4]: 69.6 mg/dL
- TG [4]: 37.2 mg/dL
- TP [4]: 5.2 g/dL
- gamma-GTP [4]: 1 IU/L
- Bas [5]: 0%
- Eos [5]: 1%
- Fbg [5]: 292.2 mg/dL
- Ht [5]: 39.2%
- Lym [5]: 69.2%
- MCHC [5]: 32.7%
- Mono [5]: 2.6%
- RBC [5]: 604 x10_4/ul
- Ret [5]: 10.3%
- KIDNEY_L [6]: 0.8 g
- KIDNEY_R [6]: 0.8 g
- KIDNEY_TOTAL [6]: 1.6 g
- LIVER [6]: 7 g
- ALP [6]: 1457.4 IU/L
- ALT [6]: 45 IU/L
- AST [6]: 83.2 IU/L
- BUN [6]: 6.8 mg/dL
- CRE [6]: 0.2 mg/dL
- DBIL [6]: 0.008 mg/dL
- GLC [6]: 159.8 mg/dL
- IP [6]: 9.6 mg/dL
- K [6]: 3.9 meq/L
- PL [6]: 125 mg/dL
- RALB [6]: 2.4 g/dL
- TBIL [6]: 0.054 mg/dL
- TC [6]: 70.8 mg/dL
- TG [6]: 29.2 mg/dL
- TP [6]: 5.3 g/dL
- gamma-GTP [6]: 1 IU/L
- Bas [7]: 0.2%
- Eos [7]: 0.8%
- Fbg [7]: 259.6 mg/dL
- Ht [7]: 38.8%
- MCHC [7]: 32.8%
- Mono [7]: 3.2%
- RBC [7]: 582.4 x10_4/ul
- Ret [7]: 8.5%
- KIDNEY_L [8]: 0.8 g
- KIDNEY_R [8]: 0.8 g
- KIDNEY_TOTAL [8]: 1.7 g
- LIVER [8]: 9.8 g
- ALP [8]: 1873.8 IU/L
- ALT [8]: 46.4 IU/L
- AST [8]: 74.4 IU/L
- BUN [8]: 13 mg/dL
- CRE [8]: 0.2 mg/dL
- DBIL [8]: 0.012 mg/dL
- GLC [8]: 187.8 mg/dL
- IP [8]: 8.9 mg/dL
- K [8]: 4.4 meq/L
- PL [8]: 122.6 mg/dL
- RALB [8]: 2.5 g/dL
- TBIL [8]: 0.04 mg/dL
- TC [8]: 68.6 mg/dL
- TG [8]: 36.4 mg/dL
- TP [8]: 5.3 g/dL
- gamma-GTP [8]: 1 IU/L
- Bas [9]: 0.2%
- Eos [9]: 0.6%
- Fbg [9]: 271.2 mg/dL
- Ht [9]: 40.6%
- MCHC [9]: 32.5%
- Mono [9]: 3.4%
- RBC [9]: 616.6 x10_4/ul
- Ret [9]: 10.6%
- KIDNEY_L [10]: 0.8 g
- KIDNEY_R [10]: 0.8 g
- KIDNEY_TOTAL [10]: 1.6 g
- LIVER [10]: 7.4 g
- ALT [10]: 43.2 IU/L
- AST [10]: 76.6 IU/L
- BUN [10]: 8.2 mg/dL
- CRE [10]: 0.2 mg/dL
- DBIL [10]: 0.018 mg/dL
- GLC [10]: 173.6 mg/dL
- IP [10]: 9.3 mg/dL
- K [10]: 4.3 meq/L
- PL [10]: 123.2 mg/dL
- RALB [10]: 2.5 g/dL
- TBIL [10]: 0.062 mg/dL
- TC [10]: 64.8 mg/dL
- TG [10]: 28 mg/dL
- TP [10]: 5.3 g/dL
- gamma-GTP [10]: 1.6 IU/L
- Bas [11]: 0%
- Eos [11]: 0.6%
- Fbg [11]: 253.6 mg/dL
- Ht [11]: 39.6%
- MCHC [11]: 32.5%
- Mono [11]: 2.4%
- RBC [11]: 609.8 x10_4/ul
- Ret [11]: 10%
- KIDNEY_L [12]: 0.8 g
- KIDNEY_R [12]: 0.8 g
- KIDNEY_TOTAL [12]: 1.6 g
- LIVER [12]: 7.4 g
- ALP [12]: 1256 IU/L
- ALT [12]: 43.4 IU/L
- AST [12]: 75.4 IU/L
- BUN [12]: 7 mg/dL
- CRE [12]: 0.2 mg/dL
- DBIL [12]: 0.02 mg/dL
- GLC [12]: 170.4 mg/dL
- IP [12]: 9 mg/dL
- K [12]: 4.2 meq/L
- PL [12]: 116.8 mg/dL
- RALB [12]: 2.5 g/dL
- TBIL [12]: 0.058 mg/dL
- TC [12]: 60 mg/dL
- TG [12]: 28.6 mg/dL
- TP [12]: 5.2 g/dL
- gamma-GTP [12]: 1.2 IU/L
- Bas [13]: 0%
- Eos [13]: 0.6%
- Fbg [13]: 283.6 mg/dL
- Ht [13]: 39.8%
- MCHC [13]: 32.3%
- Mono [13]: 1.8%
- RBC [13]: 609.2 x10_4/ul
- Ret [13]: 8.8%
- KIDNEY_L [14]: 0.8 g
- KIDNEY_R [14]: 0.8 g
- KIDNEY_TOTAL [14]: 1.6 g
- LIVER [14]: 6.9 g
- ALP [14]: 1470.4 IU/L
- ALT [14]: 48.4 IU/L
- AST [14]: 90.4 IU/L
- BUN [14]: 8 mg/dL
- CRE [14]: 0.2 mg/dL
- DBIL [14]: 0.014 mg/dL
- GLC [14]: 152.2 mg/dL
- IP [14]: 8.5 mg/dL
- K [14]: 3.8 meq/L
- PL [14]: 119 mg/dL
- RALB [14]: 2.5 g/dL
- TBIL [14]: 0.048 mg/dL
- TC [14]: 62.4 mg/dL
- TG [14]: 32.2 mg/dL
- TP [14]: 5.3 g/dL
- gamma-GTP [14]: 1 IU/L
- Bas [15]: 0%
- Eos [15]: 1%
- Fbg [15]: 259 mg/dL
- Ht [15]: 39.4%
- MCHC [15]: 32.5%
- Mono [15]: 3.6%
- RBC [15]: 603.8 x10_4/ul
- Ret [15]: 9.1%
- KIDNEY_L [16]: 0.8 g
- KIDNEY_R [16]: 0.8 g
- KIDNEY_TOTAL [16]: 1.7 g
- LIVER [16]: 9.6 g
- ALT [16]: 53 IU/L
- AST [16]: 84.4 IU/L
- BUN [16]: 13.6 mg/dL
- CRE [16]: 0.2 mg/dL
- DBIL [16]: 0.014 mg/dL
- GLC [16]: 172.2 mg/dL
- IP [16]: 8.7 mg/dL
- K [16]: 4.3 meq/L
- PL [16]: 112.4 mg/dL
- RALB [16]: 2.5 g/dL
- TBIL [16]: 0.048 mg/dL
- TC [16]: 57.2 mg/dL
- TG [16]: 31.6 mg/dL
- TP [16]: 5.3 g/dL
- gamma-GTP [16]: 1 IU/L
